From the OligoGym collection
After the bases stand the sugars from the 5' end (letter, count) and the backbone: PS all phosphorothioate, else s phosphorothioate and o phosphodiester by linkage. Methylation of C is not given here. e = 2'-O-(2-methoxyethyl) (MOE); k = constrained ethyl (cEt); d = 2'-deoxy (DNA); m = 2'-O-methyl

Molecular target: HSD17B13
Conditions: ASO, HepaRG

TTAAACCTTCCCTGTG (sugars k3 d1 m1 d8 k3, PS)
target mRNA inhibition (1 µM): 23%

GATTACCCCTGGCTTT (sugars k3 d10 k3, PS)
target mRNA inhibition (1 µM): 31%

TGACAATGGTTGCCAC (sugars k3 d10 k3, PS)
target mRNA inhibition (1 µM): 40%

TGGTTCAGTCCTTGTG (sugars k3 d10 k3, PS)
target mRNA inhibition (1 µM): 50%

GAGGTTTTGATACCAG (sugars k3 d10 k3, PS)
target mRNA inhibition (1 µM): 59%

TTACATCACCCACTTC (sugars k3 d10 k3, PS)
target mRNA inhibition (1 µM): 37%

GATTATTATGTGATTG (sugars k3 d10 k3, PS)
target mRNA inhibition (1 µM): 39%

CTGAGAAGATCGGCTG (sugars k3 d10 k3, PS)
target mRNA inhibition (1 µM): 37%

AGGATGATGTTCATGG (sugars k3 d10 k3, PS)
target mRNA inhibition (0.02 µM): 25% | target mRNA inhibition (0.078 µM): 27% | target mRNA inhibition (0.313 µM): 71% | target mRNA inhibition (1 µM): 88% | target mRNA inhibition (1.25 µM): 80% | target mRNA inhibition (5 µM): 71%

CAAGACAGACTGTTGA (sugars k3 d10 k3, PS)
target mRNA inhibition (1 µM): 39%

TGCATCTTAAGATACC (sugars k3 d10 k3, PS)
target mRNA inhibition (1 µM): 81%

GTGCTAAGTAGTAATT (sugars k3 d10 k3, PS)
target mRNA inhibition (1 µM): 58%

CAGTTTAGATTGCATA (sugars k3 d10 k3, PS)
target mRNA inhibition (1 µM): 60%

GAGTAGTGTAAGCTGA (sugars k3 d10 k3, PS)
target mRNA inhibition (0.02 µM): 12% | target mRNA inhibition (0.078 µM): 12% | target mRNA inhibition (0.313 µM): 51% | target mRNA inhibition (1 µM): 80% | target mRNA inhibition (1.25 µM): 69% | target mRNA inhibition (5 µM): 92%

CTTCCAAGCATTCCAT (sugars k3 d10 k3, PS)
target mRNA inhibition (1 µM): 57%

GATCGGCTGGATATAC (sugars k3 d10 k3, PS)
target mRNA inhibition (1 µM): 7%

ATACTTACCAATATGG (sugars k3 d10 k3, PS)
target mRNA inhibition (1 µM): 0%

GCATGGCTACAGATTG (sugars kkdddddddddkekek, PS)
target mRNA inhibition (1 µM): 41%

TCCCACAGAACCAATA (sugars k3 d10 k3, PS)
target mRNA inhibition (1 µM): 24%

TGATAAAATAGGGTGC (sugars k3 d10 k3, PS)
target mRNA inhibition (1 µM): 44%

AAGAGGCTAGGGAAAT (sugars k3 d10 k3, PS)
target mRNA inhibition (1 µM): 66%

CAAGGAGTACTTCACA (sugars k3 d10 k3, PS)
target mRNA inhibition (1 µM): 66%

AATACCCTTGGTGGAG (sugars k3 d10 k3, PS)
target mRNA inhibition (1 µM): 16%

AGTACAGTTCCTTTTC (sugars k3 d1 m1 d8 k3, PS)
target mRNA inhibition (1 µM): 56%

GCTTAATGTTCAGTTT (sugars k3 d10 k3, PS)
target mRNA inhibition (1 µM): 50%

TACGATGGAACAAAAA (sugars k3 d10 k3, PS)
target mRNA inhibition (1 µM): 20%

AGCAAAGTTTGGGCAG (sugars k3 d10 k3, PS)
target mRNA inhibition (1 µM): 44%

AGTCCATGCAAAAGCA (sugars k3 d1 m1 d8 k3, PS)
target mRNA inhibition (0.02 µM): 0% | target mRNA inhibition (0.078 µM): 21% | target mRNA inhibition (0.313 µM): 20% | target mRNA inhibition (1 µM): 73% | target mRNA inhibition (1.25 µM): 65% | target mRNA inhibition (5 µM): 75%

CTAAAGGTTTCTGTTG (sugars k3 d10 k3, PS)
target mRNA inhibition (1 µM): 34%

CTAGAACACTTGCCTC (sugars k3 d10 k3, PS)
target mRNA inhibition (1 µM): 25%

CAACCAAACTTCCAGC (sugars k3 d10 k3, PS)
target mRNA inhibition (1 µM): 72%

AAGACATTCTAGCCTG (sugars k3 d1 m1 d8 k3, PS)
target mRNA inhibition (1 µM): 54%

TCAGAACAGTTCAACT (sugars k3 d10 k3, PS)
target mRNA inhibition (1 µM): 30%

GCAAAGTTAATAGGAC (sugars k3 d10 k3, PS)
target mRNA inhibition (1 µM): 52%

AGTGTAAGCTGAGAGT (sugars k3 d10 k3, PS)
target mRNA inhibition (1 µM): 71%

TGGGACCAAGGATATA (sugars k3 d1 m1 d8 k3, PS)
target mRNA inhibition (1 µM): 51%

CATCUCTGGGACCAAG (sugars k3 d1 m1 d8 k3, PS)
target mRNA inhibition (1 µM): 42%

CTCTTAGCTGTGCACT (sugars k3 d10 k3, PS)
target mRNA inhibition (1 µM): 53%

GAATGTAAAGGCTGGG (sugars k3 d10 k3, PS)
target mRNA inhibition (1 µM): 42%

TGGCATGGCTACAGAT (sugars k3 d1 m1 d8 k3, PS)
target mRNA inhibition (1 µM): 57%

TAGTGGACTTCATTAG (sugars k3 d10 k3, PS)
target mRNA inhibition (1 µM): 52%

CGTGGCCGCACACTGA (sugars k3 d10 k3, PS)
target mRNA inhibition (1 µM): 42%

TGGCATGGCTACAGAT (sugars k3 d10 k3, PS)
target mRNA inhibition (1 µM): 57%

GATATGAGTAAAGATC (sugars k3 d10 k3, PS)
target mRNA inhibition (1 µM): 23%

TAGAATAGTCTTCAGC (sugars kkdddddddddkekek, PS)
target mRNA inhibition (1 µM): 50%

GGCATTAGATGGTAAG (sugars k3 d10 k3, PS)
target mRNA inhibition (1 µM): 62%

GATACTTACCAATATG (sugars k3 d10 k3, PS)
target mRNA inhibition (1 µM): 22%

GAAGGATTTCTAGGAT (sugars k3 d10 k3, PS)
target mRNA inhibition (0.02 µM): 0% | target mRNA inhibition (0.078 µM): 0% | target mRNA inhibition (0.313 µM): 24% | target mRNA inhibition (1 µM): 71% | target mRNA inhibition (1.25 µM): 61% | target mRNA inhibition (5 µM): 88%

AAAAGTGTCCTCGATC (sugars k3 d10 k3, PS)
target mRNA inhibition (1 µM): 17%

TCACCACGATTGTTAC (sugars k3 d10 k3, PS)
target mRNA inhibition (1 µM): 34%

CTGCTAGTGCCAAACC (sugars kkdddddddddkekek, PS)
target mRNA inhibition (1 µM): 51%

TAAGATACCCAGGTTG (sugars k3 d9 k3 e1, PS)
target mRNA inhibition (1 µM): 58%

AATCACAAGTAAGGTA (sugars k3 d1 m1 d8 k3, PS)
target mRNA inhibition (1 µM): 31%

TCTTCTCTTGGGTCCA (sugars k3 d10 k3, PS)
target mRNA inhibition (1 µM): 59%

CCACATAGCTAACTCA (sugars k3 d10 k3, PS)
target mRNA inhibition (1 µM): 53%

AAGATAAGTAGATGGT (sugars k3 d10 k3, PS)
target mRNA inhibition (0.02 µM): 7% | target mRNA inhibition (0.078 µM): 26% | target mRNA inhibition (0.313 µM): 58% | target mRNA inhibition (1 µM): 79% | target mRNA inhibition (1.25 µM): 77% | target mRNA inhibition (5 µM): 89%

GTTTTGATACCAGTTT (sugars k3 d10 k3, PS)
target mRNA inhibition (1 µM): 67%

CCAGAAGTATGTGAAC (sugars k3 d10 k3, PS)
target mRNA inhibition (1 µM): 8%

TAAGCTGAGAGTTCTA (sugars k3 d9 k3 e1, PS)
target mRNA inhibition (1 µM): 48%

ACTGCTGCTAGTGCCA (sugars kkdddddddddkekek, PS)
target mRNA inhibition (1 µM): 39%

CTATGCAAGCCTTCAC (sugars k3 d10 k3, PS)
target mRNA inhibition (1 µM): 19%

AGTAGTGTAAGCTGAG (sugars kkdddddddddkekek, PS)
target mRNA inhibition (1 µM): 52%

TGTCAGACCTCTGTGA (sugars k3 d10 k3, PS)
target mRNA inhibition (1 µM): 0%

GTTCTTGTTGATATTC (sugars k3 d10 k3, PS)
target mRNA inhibition (0.02 µM): 35% | target mRNA inhibition (0.078 µM): 51% | target mRNA inhibition (0.313 µM): 77% | target mRNA inhibition (1 µM): 84% | target mRNA inhibition (1.25 µM): 92% | target mRNA inhibition (5 µM): 96%

AGAATTAAGGGCTATA (sugars k3 d10 k3, PS)
target mRNA inhibition (1 µM): 45%

CGAATTTCTTCAAAGA (sugars k3 d10 k3, PS)
target mRNA inhibition (1 µM): 55%

TATTCTGTGGCATGGC (sugars kkdddddddddkekek, PS)
target mRNA inhibition (1 µM): 57%

GTTCUTGTTGATATTC (sugars k3 d1 m1 d8 k3, PS)
target mRNA inhibition (1 µM): 70%

GGCACTCAGCTGCAGT (sugars k3 d10 k3, PS)
target mRNA inhibition (1 µM): 49%

CACTTTCACTGGGTGT (sugars k3 d10 k3, PS)
target mRNA inhibition (1 µM): 7%

GCTGUAAGAGTCAGTA (sugars k3 d1 m1 d8 k3, PS)
target mRNA inhibition (1 µM): 28%

AGAGAGTAATCAGTTT (sugars k3 d9 k3 e1, PS)
target mRNA inhibition (1 µM): 51%

TCAAGTAATAAAGTCC (sugars k3 d10 k3, PS)
target mRNA inhibition (1 µM): 49%

TATCTATTATGCACTC (sugars k3 d10 k3, PS)
target mRNA inhibition (1 µM): 48%

TACAGATTGGAATGCT (sugars k3 d10 k3, PS)
target mRNA inhibition (1 µM): 46%

GTAAAATTATGCCTTG (sugars k3 d10 k3, PS)
target mRNA inhibition (1 µM): 50%

TTCACCTGATTTAGAG (sugars k3 d10 k3, PS)
target mRNA inhibition (1 µM): 9%

CTGCUAGTGCCAAACC (sugars k3 d1 m1 d8 k3, PS)
target mRNA inhibition (1 µM): 67%

CTTGATCTCTTAGCTG (sugars k3 d10 k3, PS)
target mRNA inhibition (1 µM): 51%

CTTTTAGTCAGGTAGA (sugars k3 d10 k3, PS)
target mRNA inhibition (1 µM): 33%

AGAGTTGCACCGTTTT (sugars kkdddddddddkekek, PS)
target mRNA inhibition (0.02 µM): 6% | target mRNA inhibition (0.078 µM): 18% | target mRNA inhibition (0.313 µM): 38% | target mRNA inhibition (1 µM): 80% | target mRNA inhibition (1.25 µM): 63% | target mRNA inhibition (5 µM): 81%

AGCTGAGAGTTCTACA (sugars k3 d10 k3, PS)
target mRNA inhibition (1 µM): 67%

CAGCATTGATTCGAAA (sugars kkdddddddddkekek, PS)
target mRNA inhibition (1 µM): 58%

CTTTGCAGCATTGATT (sugars kkdddddddddkekek, PS)
target mRNA inhibition (1 µM): 49%

AGAGGGTCCACTTTTG (sugars k3 d10 k3, PS)
target mRNA inhibition (1 µM): 34%

TTAGGAAAGCTCATGG (sugars k3 d10 k3, PS)
target mRNA inhibition (1 µM): 26%

GCTGAAACTGCTGATT (sugars k3 d10 k3, PS)
target mRNA inhibition (1 µM): 38%

ATTCUGTGGCATGGCT (sugars k3 d1 m1 d8 k3, PS)
target mRNA inhibition (1 µM): 59%

CTCTTCATCCTTGGTG (sugars k3 d10 k3, PS)
target mRNA inhibition (1 µM): 25%

ATAACTACAAGAGGTT (sugars k3 d9 k3 e1, PS)
target mRNA inhibition (1 µM): 67%

AAAAATCGCTGCTTAG (sugars k3 d10 k3, PS)
target mRNA inhibition (1 µM): 25%

CCTGCCTATTCCATGC (sugars k3 d10 k3, PS)
target mRNA inhibition (1 µM): 24%

GTTTTGGGCTAATGAA (sugars k3 d9 k3 e1, PS)
target mRNA inhibition (1 µM): 47%

GTAATAGCCAGTACAG (sugars kkdddddddddkekek, PS)
target mRNA inhibition (1 µM): 47%

TTCCGGTAAGAATTTC (sugars k3 d10 k3, PS)
target mRNA inhibition (1 µM): 33%

TTTCCTCCACACCGCG (sugars k3 d10 k3, PS)
target mRNA inhibition (1 µM): 18%

GACTAATGCAAGATTT (sugars k3 d10 k3, PS)
target mRNA inhibition (1 µM): 55%
